Assay results published in patent US20240139333A1, “2,6-DICHLOROPHENYL ESTER COMPOUNDS AND USE THEREOF” (Fusion Pharmaceuticals Inc., priority 2021, published 2024).
One block for each compound: values may come before it.

Columns and labels:
[1] = Comparative active ester reactivity study with HOPO nucleophile; conditions: 1,2-HOPO 1 eq., 22±2° C.
Protocol: (§1) General Experimental Protocol for Comparative Active Ester Reactivity Study with HOPO or HOA Nucleophiles
(§2) To a 4 mL scintillation vial containing Compound A-E (in respective experiments; 1 eq.) was added a stir bar followed by 150 μL of HPLC grade acetonitrile. In another 4 mL scintillation vial containing a respective nucleophile (1 eq.) was added 280 μL HPLC grade water. The solutions were combined and allowed to stir at room temperature (22±2° C.) for 4 hours. Timed aliquots at time (T)=15, 30, 60, 120 and 240 minutes were taken and analyzed by HPLC-MS using elution method 1 (Table 1).

[2] = Comparative active ester reactivity study with HOA nucleophile (benzhydroxamic acid); conditions: Benzhydroxamic Acid 1 eq., 22±2° C.
Protocol: as §1, §2

[3] = Comparative active ester reactivity study with HOA nucleophile (N-hydroxy-N-methylbenzamide); conditions: N-Hydroxy-N-methylbenzamide 1 eq., 22±2° C.
Protocol: as §1, §2

[4] = Nucleophilic reactivity study with L-Lysine; conditions: L-Lysine 5 equiv, 22±2° C.
Protocol: General Experimental Protocol for Nucleophilic Reactivity Study with L-Lysine
To a 4 mL scintillation vial containing Compound A-E (in respective experiments; 1 eq.) was added a stir bar followed by 70 μL of HPLC grade acetonitrile. In another 4 mL scintillation vial containing L-Lysine monohydrochloride (5 eq.) was added 130 μL HPLC grade water followed by diisopropylethylamine (5 eq.). The solutions were combined and allowed to stir at room temperature (22±2° C.). Timed aliquots at time (T)=15, 30, 60 and 120 minutes were taken and analyzed by HPLC-MS using elution method 1 (Table 2).

[5] = pH stability study; format: physicochemical; conditions: 20° C.
Protocol: To a 4 mL scintillation vial containing Compound A-E (in respective experiments; 0.8 mg) was added 4 mL of either a pH 3, pH 5 pH 7 or pH 9 buffer to create a 0.2 mg/mL solution. 2 mL of this solution was added to a 2 mL HPLC vial and placed in the auto sampler of an HPLC-MS at 20° C. Timed aliquots at time (T)=15, 30, 60, 120, 240 and 480 minutes were taken and analyzed by HPLC-MS using elution method 1 (Table 3). […]
pH 3 Buffer: Citric acid/Na2HPO4 (79.45 mL 0.1 M-citric acid and 20.55 mL 0.2-Na2HPO4) pH 5 Buffer: Citric acid/Na2HPO4 (48.50 mL 0.1 M-citric acid and 51.50 mL 0.2-Na2HPO4) pH 7 Buffer: Citric acid/Na2HPO4 (17.65 mL 0.1 M-citric acid and 82.35 mL 0.2-Na2HPO4) pH 9 Buffer: Sodium Carbonate/Sodium Bicarbonate (10 mL 0.1 M-Na2CO3 and 90 mL 0.1-NaHCO3)

[6] = Temperature stability study in H2O; format: physicochemical
Protocol: 20° C.: To a 4 mL scintillation vial containing Compound A-E (in respective experiments; 0.8 mg) was added 4 mL of HPLC grade water to create a 0.2 mg/mL solution. 2 mL of this solution was added to a 2 mL HPLC vial and placed in the auto sampler of an HPLC-MS at 20° C. Timed aliquots at time (T)=15, 30, 60, 120, 240 and 480 minutes were taken and analyzed by HPLC-MS using elution method 1 (Table 4).
50° C.: To a 4 mL scintillation vial containing Compound A-E (in respective experiments; 0.8 mg) was added a stir bar followed by 4 mL of HPLC grade water to create a 0.2 mg/mL solution. The vial was capped and allowed to stir in a 50° C. oil bath for 8 hours. Timed aliquots at time (T) =15, 30, 60, 120, 240 and 480 minutes were taken and analyzed by HPLC-MS using elution method 1 (Table 4).

[7] = DMSO stability study; format: physicochemical
Protocol: To a 4 mL scintillation vial containing Compound A-E (in respective experiments; 4 mg) was added a stir bar followed by 500 μL of anhydrous dimethyl sulfoxide and was allowed to stir at room temperature (22±2° C.) for 4 hours. Timed aliquots at time (T)=15, 30, 60, 120 and 240 minutes were taken, dissolved in water to achieve 2% DMSO composition and analyzed by HPLC-MS using elution method 1 (Table 5).

% Active Ester Remaining ([1]; 15 min): 98.85%
% Active Ester Remaining ([1]; 30 min): 96.23%
% Active Ester Remaining ([1]; 60 min): 90.85%
% Active Ester Remaining ([1]; 120 min): 84.98%
% Active Ester Remaining ([1]; 240 min): 69.55%
% Active Ester Remaining ([2]; 15 min): 81.80%
% Active Ester Remaining ([2]; 30 min): 69.62%
% Active Ester Remaining ([2]; 60 min): 56.57%
% Active Ester Remaining ([2]; 120 min): 42.81%
% Active Ester Remaining ([2]; 240 min): 28.60%
% Active Ester Remaining ([3]; 15 min): 91.32%
% Active Ester Remaining ([3]; 30 min): 84.96%
% Active Ester Remaining ([3]; 60 min): 73.90%
% Active Ester Remaining ([3]; 120 min): 56.72%
% Active Ester Remaining ([3]; 240 min): 35.97%
% Active Ester Remaining ([4]; 15 min): 0.20%
% Active Ester Remaining ([4]; 30 min): 0%
% Remaining ([5]; pH 3 buffer, 15 min): 100%
% Remaining ([5]; pH 3 buffer, 30 min): 99.56%
% Remaining ([5]; pH 3 buffer, 60 min): 99.19%
% Remaining ([5]; pH 3 buffer, 120 min): 98.69%
% Remaining ([5]; pH 3 buffer, 240 min): 97.41%
% Remaining ([5]; pH 3 buffer, 480 min): 95.05%
% Remaining ([5]; pH 5 buffer, 15 min): 100%
% Remaining ([5]; pH 5 buffer, 30 min): 99.50%
% Remaining ([5]; pH 5 buffer, 60 min): 99.05%
% Remaining ([5]; pH 5 buffer, 120 min): 98.27%
% Remaining ([5]; pH 5 buffer, 240 min): 96.36%
% Remaining ([5]; pH 5 buffer, 480 min): 92.97%
% Remaining ([5]; pH 7 buffer, 15 min): 99.35%
% Remaining ([5]; pH 7 buffer, 30 min): 98.45%
% Remaining ([5]; pH 7 buffer, 60 min): 97.44%
% Remaining ([5]; pH 7 buffer, 120 min): 95.40%
% Remaining ([5]; pH 7 buffer, 240 min): 91.66%
% Remaining ([5]; pH 7 buffer, 480 min): 84.15%
% Remaining ([5]; pH 9 buffer, 15 min): 78.39%
% Remaining ([5]; pH 9 buffer, 30 min): 65.31%
% Remaining ([5]; pH 9 buffer, 60 min): 54.47%
% Remaining ([5]; pH 9 buffer, 120 min): 38.67%
% Remaining ([5]; pH 9 buffer, 240 min): 19.98%
% Remaining ([5]; pH 9 buffer, 480 min): 5.01%
% Remaining ([6]; 20° C., 15 min): 99.63%
% Remaining ([6]; 20° C., 30 min): 99.20%
% Remaining ([6]; 20° C., 60 min): 98.92%
% Remaining ([6]; 20° C., 120 min): 98.12%
% Remaining ([6]; 20° C., 240 min): 96.98%
% Remaining ([6]; 20° C., 480 min): 95.14%
% Remaining ([6]; 50° C., 15 min): 97.57%
% Remaining ([6]; 50° C., 30 min): 92.71%
% Remaining ([6]; 50° C., 60 min): 89.62%
% Remaining ([6]; 50° C., 120 min): 85.20%
% Remaining ([6]; 50° C., 240 min): 79.93%
% Remaining ([6]; 50° C., 480 min): 68.06%
% Active Ester Remaining in DMSO at 22 ± 2° C. ([7]; 15 min): 99.89%
% Active Ester Remaining in DMSO at 22 ± 2° C. ([7]; 30 min): 99.81%
% Active Ester Remaining in DMSO at 22 ± 2° C. ([7]; 60 min): 99.79%
% Active Ester Remaining in DMSO at 22 ± 2° C. ([7]; 120 min): 99.78%
% Active Ester Remaining in DMSO at 22 ± 2° C. ([7]; 240 min): 99.46%
Compound: O=C(CCc1cccnc1)Oc1c(F)cccc1F [Compound B, 2,6-Difluorophenyl-3-(pyridin-3-yl)propanoate]

% Active Ester Remaining ([1]; 15 min): 99.18%
% Active Ester Remaining ([1]; 30 min): 96.81%
% Active Ester Remaining ([1]; 60 min): 93.29%
% Active Ester Remaining ([1]; 120 min): 85.25%
% Active Ester Remaining ([1]; 240 min): 75.07%
% Active Ester Remaining ([2]; 15 min): 96.49%
% Active Ester Remaining ([2]; 30 min): 84.28%
% Active Ester Remaining ([2]; 60 min): 74.58%
% Active Ester Remaining ([2]; 120 min): 57.07%
% Active Ester Remaining ([2]; 240 min): 34.21%
% Active Ester Remaining ([3]; 15 min): 95.63%
% Active Ester Remaining ([3]; 30 min): 90.98%
% Active Ester Remaining ([3]; 60 min): 83.40%
% Active Ester Remaining ([3]; 120 min): 65.46%
% Active Ester Remaining ([3]; 240 min): 41.73%
% Active Ester Remaining ([4]; 15 min): 8.34%
% Active Ester Remaining ([4]; 30 min): 0%
% Remaining ([5]; pH 3 buffer, 15 min): 100%
% Remaining ([5]; pH 3 buffer, 30 min): 99.74%
% Remaining ([5]; pH 3 buffer, 60 min): 99.57%
% Remaining ([5]; pH 3 buffer, 120 min): 99.21%
% Remaining ([5]; pH 3 buffer, 240 min): 98.55%
% Remaining ([5]; pH 3 buffer, 480 min): 97.20%
% Remaining ([5]; pH 5 buffer, 15 min): 99.83%
% Remaining ([5]; pH 5 buffer, 30 min): 99.54%
% Remaining ([5]; pH 5 buffer, 60 min): 99.19%
% Remaining ([5]; pH 5 buffer, 120 min): 98.63%
% Remaining ([5]; pH 5 buffer, 240 min): 97.52%
% Remaining ([5]; pH 5 buffer, 480 min): 94.89%
% Remaining ([5]; pH 7 buffer, 15 min): 99.11%
% Remaining ([5]; pH 7 buffer, 30 min): 98.00%
% Remaining ([5]; pH 7 buffer, 60 min): 96.59%
% Remaining ([5]; pH 7 buffer, 120 min): 94.83%
% Remaining ([5]; pH 7 buffer, 240 min): 89.25%
% Remaining ([5]; pH 7 buffer, 480 min): 78.56%
% Remaining ([5]; pH 9 buffer, 15 min): 83.05%
% Remaining ([5]; pH 9 buffer, 30 min): 61.77%
% Remaining ([5]; pH 9 buffer, 60 min): 42.40%
% Remaining ([5]; pH 9 buffer, 120 min): 23.66%
% Remaining ([5]; pH 9 buffer, 240 min): 14.96%
% Remaining ([5]; pH 9 buffer, 480 min): 10.31%
% Remaining ([6]; 20° C., 15 min): 97.54%
% Remaining ([6]; 20° C., 30 min): 96.41%
% Remaining ([6]; 20° C., 60 min): 95.69%
% Remaining ([6]; 20° C., 120 min): 94.78%
% Remaining ([6]; 20° C., 240 min): 93.59%
% Remaining ([6]; 20° C., 480 min): 91.31%
% Remaining ([6]; 50° C., 15 min): 86.19%
% Remaining ([6]; 50° C., 30 min): 77.18%
% Remaining ([6]; 50° C., 60 min): 72.58%
% Remaining ([6]; 50° C., 120 min): 67.54%
% Remaining ([6]; 50° C., 240 min): 65.59%
% Remaining ([6]; 50° C., 480 min): 66.22%
% Active Ester Remaining in DMSO at 22 ± 2° C. ([7]; 15 min): 99.35%
% Active Ester Remaining in DMSO at 22 ± 2° C. ([7]; 30 min): 98.99%
% Active Ester Remaining in DMSO at 22 ± 2° C. ([7]; 60 min): 99.29%
% Active Ester Remaining in DMSO at 22 ± 2° C. ([7]; 120 min): 99.65%
% Active Ester Remaining in DMSO at 22 ± 2° C. ([7]; 240 min): 99.31%
Compound: O=C(CCc1cccnc1)Oc1ccc([N+](=O)[O-])cc1 [Compound D, 4-Nitrophenyl-3-(pyridin-3-yl)propanoate]
